These results are taken from patent US5530018A, “Meso-azanoradamantanes” (G. D. Searle & Co., priority 1994, dated 1996).

For orientation: EC50 means the concentration needed to bring the measured effect to its halfway point. One may read the Ki as the dissociation constant of the complex between target and ligand, obtained from inhibition or displacement. A high value points to lower affinity.

The target in assay [1] is T1, 5-HT4 receptor (Rattus norvegicus, UniProt Q62758).
T1 construct: One 2 cm segment of intrathoracic esophagus proximal to the diaphragm was removed from male rats; from tissue; host or cells: rat intrathoracic oesophagus, inner tunica muscularis mucosae
The assay is described as follows: cell-based. The conditions noted are these: carbachol (3 μM)-contracted rat TMM, 37° C., tissues from 5 rats; read-out: 5-HT4 Agonism (Rat TMM) In Vitro Assay: EC50 values. The protocol: (§1) 5-HT4 agonist activity was determined in the in vitro rat tunica muscularis mucosae (TMM) assay described herein. (Baxter et al., Naunyn Schmied Arch. Pharmacol, 1991, 343, 439). […] One with skill in the art could determine the activity of the compounds of the present invention using the methodology of these assays, described herein, without undue experimentation.
Schmied. Arch. Pharmacol. 343, 439 (1991)]. Agonist activity was determined utilizing relaxation of carbachol-contracted rat tunica muscularis mucosae (TMM). One 2 cm segment of intrathoracic esophagus proximal to the diaphragm was removed from male rats, weighing approximately 300 gm, and the outer muscle layers removed. The inner tunica muscularis mucosa was mounted under 0.2-0.3 g of tension in a tissue bath containing oxygenated Tyrode's solution at 37° C. […] Following a 30 minute equilibrium period, tissues were isometrically contracted with carbachol (3 μM) to obtain a tonic contraction. A stable plateau was obtained within 20 minutes when test compound was added cumulatively to relax the muscle strip. EC50 values were obtained for each agonist in tissues from 5 rats.

In the next assay the test system is 5-HT4 receptors. The conditions noted are these: cited from earlier work.
The subject of assay [2] is GI transit. The conditions noted are these: mice; cited from earlier work.
Assay [3] concerns guinea pig stomach strips. The conditions noted are these: in vitro; cited from earlier work.
The test system of another assay is gastric emptying. The conditions noted are these: in vivo; cited from earlier work.
Another assay deals with 5-HT3. The following applies: in vivo; cited from earlier work.
For the next assay, the system named is myenteric neurons. The conditions noted are these: cited from earlier work.
The test system of assay [4] is 5-HT4 receptor. The conditions noted are these: mouse embryonic colliculi neurons; cited from earlier work.
For the next assay, the system named is antroduodenal motility. The following applies: dogs, cited from earlier work.
The next assay has as its target T2, 5-HT3 receptor (Rattus norvegicus, UniProt P35563).
T2 construct: Brain cortices were obtained from male rats and a membrane fraction prepared by standard techniques; from tissue; host or cells: rat brain cortex membranes
T2 sequence (P35563 24-483): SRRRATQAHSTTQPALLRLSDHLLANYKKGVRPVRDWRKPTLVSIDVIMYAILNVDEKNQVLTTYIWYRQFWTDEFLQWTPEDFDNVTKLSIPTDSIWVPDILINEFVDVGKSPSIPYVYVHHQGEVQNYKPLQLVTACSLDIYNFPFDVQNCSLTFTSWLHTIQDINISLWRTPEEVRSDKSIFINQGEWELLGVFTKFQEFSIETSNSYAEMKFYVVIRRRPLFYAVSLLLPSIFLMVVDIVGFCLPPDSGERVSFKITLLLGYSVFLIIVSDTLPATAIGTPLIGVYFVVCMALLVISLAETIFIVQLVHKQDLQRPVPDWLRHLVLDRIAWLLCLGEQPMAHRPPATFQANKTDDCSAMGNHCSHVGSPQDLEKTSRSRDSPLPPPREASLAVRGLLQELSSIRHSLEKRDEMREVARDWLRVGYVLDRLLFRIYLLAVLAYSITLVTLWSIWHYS
Put plainly: 5-HT3 radioligand receptor binding, [3H]-GR65630, rat brain cortex membranes. As to the method: as §1
Procedure: GR65630 binds to the 5-HT3 receptor. Brain cortices were obtained from male rats and a membrane fraction prepared by standard techniques. 0.04 mg of membrane prep was incubated with 0.2 nM [^3 H]-GR65630 for 66 minutes at 22° C. […] Membranes were filtered and washed 3 times and the filters were counted to determine [^3 H]-GR65630 specifically bound. [Kilpatrick GJ, Jones BJ and Tyers MB, Identification and Distribution of 5-HT3 Receptors in Rat Brain Using Radioligand Binding Assay, Nature 330, 746-748 (1987)].

The subject of assay [5] is GI transit. The following applies: cited from earlier work.

Each structure is given as a SMILES string. Entries after “also recorded” stand apart in the source; their conditions may differ. Structures can show the parent of a compound that is named as a salt. Where only a bound is given, the exact number is not on record here.

T1 sequence (Q62758 whole entry): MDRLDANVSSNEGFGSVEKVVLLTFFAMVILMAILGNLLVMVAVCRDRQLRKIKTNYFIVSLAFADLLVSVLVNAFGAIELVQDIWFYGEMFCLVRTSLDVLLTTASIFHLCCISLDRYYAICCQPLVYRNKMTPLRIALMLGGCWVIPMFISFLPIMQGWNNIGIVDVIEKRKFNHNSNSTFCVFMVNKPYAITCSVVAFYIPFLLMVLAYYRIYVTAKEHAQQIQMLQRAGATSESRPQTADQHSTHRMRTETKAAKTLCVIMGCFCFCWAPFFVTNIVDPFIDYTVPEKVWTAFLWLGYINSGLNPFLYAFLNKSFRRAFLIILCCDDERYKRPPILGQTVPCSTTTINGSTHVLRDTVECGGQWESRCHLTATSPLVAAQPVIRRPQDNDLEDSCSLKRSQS

Regarding `COc1cc(N)c(Cl)cc1C(=O)NCC1C2CC3CC1CN3C2` (stereo not shown) [Example 9, 4-Amino-5-chloro-N-(hexahydro,2,6-methano-1H-pyrrolizin-8-ylmethyl)-2-methoxybenzamide, monobydrochloride], at 5-HT4 receptor [1], the EC50 came to 397 nM.

Turning to `NCCc1c[nH]c2ccc(O)cc12` [Serotonin, 5-hydroxytryptamine], the “peristaltic reflex mediated through 5-HT4 receptors” value with 5-HT4 receptors was “mediated through agonism at 5-HT4 receptors”.

Regarding `COc1cc(NC(C)=O)c(Cl)cc1C(=O)NCC1C2CC3CC1CN3C2` (stereo not shown) [Example 7, 4-(Acetylamino)-5-chloro-N-(hexahydro-2,6-methano-1H-pyrrolizin-8-ylmethyl)-2-methoxybenzamide, hydrochloride], the EC50 at 5-HT4 receptor [1] was no less than 10000 nM.

On to `Cc1nccn1CC1CCc2c(c3ccccc3n2C)C1=O.Cl.O.O` (stereo not shown) [SN-307], for which the “transit of a charcoal meal” value in the assay on GI transit [2] was “enhanced transit of a charcoal meal in mice”.

Turning to `CCN(CC)CCNC(=O)c1cc(Cl)c(N)cc1OC` [metoclopramide], the “guinea pig stomach strip contraction” value in assay [3] is listed as “enhanced electrical-field stimulated contractions in guinea pig stomach strips; also recorded: enhanced guinea pig stomach muscle strip contraction in vitro”. In addition, the gastric emptying result with gastric emptying was “increases in gastric emptying rates in vivo”. The “5-HT3 mediated Bezold Jarisch reflex” value in the assay on 5-HT3 was “blocks the 5-HT3 mediated Bezold Jarisch reflex”.

On to `CN1[C@@H]2CC[C@H]1C[C@@H](OC(=O)c1cc(Cl)cc(Cl)c1)C2` [MDL 72222], for which the “guinea pig stomach strip contraction” value in assay [3] was “enhanced guinea pig stomach muscle strip contraction in vitro”. In addition, the gastric emptying entry in the assay with gastric emptying is “increases in gastric emptying rates in vivo”.

`COc1cc(N)c(Cl)cc1C(=O)NC1CCN2CCCC1C2` (stereo not shown) [BRL-24924]: the “depolarization of myenteric neurons” value in the assay with myenteric neurons is recorded as “depolarize myenteric neurons”. Further, the “prokinetic activity correlated with agonist activity at 5-HT4 receptor” value in the assay on 5-HT4 receptor [4] is reported as “correlate with agonist activity at a novel 5-HT4 receptor subtype”. Also, in the assay with 5-HT4 receptors, the “peristaltic reflex mediated through 5-HT4 receptors” value is given as “mediated through agonism at 5-HT4 receptors”.

`CN1[C@@H]2CC[C@H]1C[C@@H](OC(=O)c1c[nH]c3ccccc13)C2` [ICS 205,930]: in assay [3], the “guinea pig stomach strip contraction” value is “enhanced guinea pig stomach muscle strip contraction in vitro”. Besides, the gastric emptying entry in the assay on gastric emptying is “increases in gastric emptying rates in vivo; also recorded: enhanced gastric emptying”. Also, the “effect on responses to cisapride” value in the assay with antroduodenal motility (coadministered with cisapride) is “did not affect the responses to cisapride when the agents were coadministered”.

For `COc1cc(N)c(Cl)cc1C(=O)N[C@@H]1[C@@H]2C[C@@H]3C[C@H]1CN3C2` [Example 5, Anti-4-amino-5-chloro-N-(hexahydro-2,6-methano-1H-pyrrolizin-8-yl)-2-methoxybenzamide], at 5-HT4 receptor [1], the 50% effective concentration (EC50) was 705 nM.

Turning to `COc1cc(N)c(Cl)cc1C(=O)OC1C2CC3CC1CN3C2` (stereo not shown) [Example 13, (Hexahydro-2,6-methano-1H-pyrrolizin-8-yl) 4-amino-5-chloro-2-methoxybenzoate], at 5-HT4 receptor [1], the 50% effective concentration (EC50) came out at 216 nM.

`COc1cc(N)c(Cl)cc1C(=O)N[C@H]1[C@@H]2C[C@@H]3C[C@H]1CN3C2` [Example 4, Syn-4-amino-5-chloro-N-(hexahydro-2,6-methano-1H-pyrrolizin-8-yl)-2-methoxybenzamide, hydrochloride]: on 5-HT4 receptor [1], the EC50 turned out to be 712 nM. In addition, at 5-HT3 receptor, the affinity corresponds to a Ki of 22 nM.

Regarding `Cc1nc[nH]c1CCC(=O)c1cn(C)c2ccccc12` [GR65630], the Bmax at 5-HT3 receptor ([3H]-GR65630, rat brain cortex membranes) was found to be 154 fmol/mg protein. In addition, the “% Specific Binding” value at 5-HT3 receptor ([3H]-GR65630, non-specific binding in presence of 1 uM ICS 205,930) is 70%.

With `COc1cc(NC(C)=O)c(Cl)cc1C(=O)N[C@H]1[C@@H]2C[C@@H]3C[C@H]1CN3C2` [Example 1, Syn-4,(acetylamino)-5-chloro-N-(hexahydro-2,6-methano-1H-pyrrolizin8-yl)-2-methoxybenzamide], the EC50 at 5-HT4 receptor [1] came out at 3340 nM.

With `COc1cc(NC(C)=O)c(Cl)cc1C(=O)N[C@@H]1[C@@H]2C[C@@H]3C[C@H]1CN3C2` [Example 2, Anti-4-(acetylamino)-5-chloro-N-(hexahydro-2,6-methano-1H-pyrrolizin-8-yl)-2-methoxybenzamide], the EC50 at 5-HT4 receptor [1] is greater than 10000 nM.

As for `COc1cc(N)c(Cl)cc1C(=O)NC1CCN(CCCOc2ccc(F)cc2)CC1OC` (stereo not shown) [Cisapride], the EC50 on 5-HT4 receptor [1] was 55 nM. For the same compound, the antroduodenal motility result with antroduodenal motility is “enhanced antroduodenal motility in dogs”. Further, the “depolarization of myenteric neurons” value with myenteric neurons was “depolarize myenteric neurons”. In addition, in the assay on 5-HT4 receptor [4], the “prokinetic activity correlated with agonist activity at 5-HT4 receptor” value is on record as “correlate with agonist activity at a novel 5-HT4 receptor subtype”.

In the case of `COc1cc(N)c(Cl)cc1C(=O)NC1CN2CCC1CC2` (stereo not shown) [zacopride], in the assay on gastric emptying, the gastric emptying result is reported as “enhanced gastric emptying”.

As to `COc1cc(N)c(Cl)cc1C(=O)N[C@@H]1[C@@H]2C[C@@H]3C[C@H]1CN3C2` [Example 6, Anti-4-amino-5-chloro-N-(hexahydro-2,6-methano-1H pyrrolizin-8-yl)-2-methoxybenzamide, monohydrochloride], the EC50 on 5-HT4 receptor [1] is 382 nM. This compound yielded an inhibitory constant (Ki) at 5-HT3 receptor of 3.8 nM.

In the case of `COc1cc(N)c(Cl)cc1C(=O)NC[C@H]1[C@@H]2C[C@@H]3C[C@H]1CN3C2` [Example 14, Syn-4-amino-5-chloro-N-(hexahydro-2,6-methano-1H-pyrrolizin-8-ylmethyl)-2-methoxybenzamide, monohydrochloride], on 5-HT4 receptor [1], the concentration giving a half-maximal response (EC50) turned out to be 421 nM. The compound further returned a Ki at 5-HT3 receptor of 1.1 nM.

Turning to `COc1cc(N)c(Cl)cc1C(=O)N[C@H]1[C@@H]2C[C@@H]3C[C@H]1CN3C2` [Example 3, Syn-4-amino-5-chloro-N-(hexahydro,2,6-methano-1H-pyrrolizin-8-yl)-2-methoxybenzamide], the EC50 at 5-HT4 receptor [1] was 2230 nM.

Take `COc1cc(N)c(Cl)cc1C(=O)NC[C@@H]1[C@@H]2C[C@@H]3C[C@H]1CN3C2` [Example 11, Anti-4-amino-5-chloro-N-(hexahydro-2,6-methano-1H-pyrrolizin-8-ylmethyl)-2-methoxybenzamide, monohydrochloride]: the EC50 on 5-HT4 receptor [1] worked out at 660 nM.

On to `Cc1nccn1CC1CCc2c(c3ccccc3n2C)C1=O` (stereo not shown) [GR38032], for which the gastric emptying result with gastric emptying was “enhanced gastric emptying”. Also, the “GI transit / colonic transit” value in the assay with GI transit [5] (man (S. Gore et al.)) is given as “not only failed to accelerate GI transit, but in fact slowed colonic transit in man”. Besides, the “small intestinal transit times or mouth-to-cecum transit times” value with GI transit [5] (man (Talley et al.)) was “did not alter small intestinal transit times or mouth-to-cecumtransit times”.
